The test system of the experiment is eIF2α phosphorylation. Description: Phospho-eIF2α (Ser51) sandwich ELISA in K562 cells. As to conditions: serum-free RPMI, 10 μM compound, 6 hours; for fold induction at 10 µM: Homo sapiens, DMSO-treated control set to 1, read-out: Multiple changes in eIF2α phosphorylation at 10 μM (absorbance standardized to control = 1); for Multiple changes in eIF2α phosphorylation at 10 μM (absorbance standardized to control = 1): DMSO-treated control set to 1. It is filed as cell-based. On the procedure:
Pathscan Phospho-eIF2a (Ser51) Sandwich ELISA Kit #7286 from Cell signaling was used. The K562 cell line was cultured in serum-free RPMI medium at 37° C. in the presence of 5% CO2. Cells were treated with test compounds at a concentration of 10 μM. Six hours after compound treatment, the cells were lysed with a lysis buffer included in the kit to obtain 50 μg of protein by quantification. Afterwards, ELISA assay was performed according to the manufacturer's protocol to obtain absorbance. The absorbance for each obtained compound was standardized to a value of which the control (DMSO-treated) is set to 1.
Background: ELISA stands for enzyme-linked immunosorbent assay.

Regarding `CS(=O)(=O)c1ccc(O[C@H]2CC[C@H](Nc3c(Nc4ccccc4F)c(=O)c3=O)CC2)cc1` [Compound 65, 3-((2-Fluorophenyl)amino)-4-(((1,4-trans)-4-(4-(methylsulfonyl)phenoxy)cyclohexyl)amino)cyclobut-3-ene-1,2-dione], the fold induction at 10 µM is 1.07.
With `COc1cccc(Nc2c(N[C@H]3CC[C@H](Oc4ccc(C(F)(F)F)cc4)CC3)c(=O)c2=O)c1` [Compound 33, 3-((3-Methoxyphenyl)amino)-4-(((1,4-trans)-4-(4-(trifluoromethyl)phenoxy)cyclohexyl)amino)cyclobut-3-ene-1,2-dione], the fold induction at 10 µM came out at 0.83.
For the molecule `CC(C)(C)c1ccccc1Nc1c(N[C@H]2CC[C@H](Oc3ccc(S(C)(=O)=O)cc3)CC2)c(=O)c1=O` [Compound 77, 3-((2-(tert-Butyl)phenyl)amino)-4-(((1,4-trans)-4-(4-(methylsulfonyl)phenoxy)cyclohexyl)amino)cyclobut-3-ene-1,2-dione], the “Multiple changes in eIF2α phosphorylation at 10 μM (absorbance standardized to control = 1)” value is listed as 1.70.
Regarding `CC(C)(C)c1cccc(Nc2c(N[C@H]3CC[C@H](Oc4ccc(C(F)(F)F)cc4)CC3)c(=O)c2=O)c1` [Compound 28, 3-((3-(tert-Butyl)phenyl)amino)-4-(((1,4-trans)-4-(4-(trifluoromethyl)phenoxy)cyclohexyl)amino)cyclobut-3-ene-1,2-dione], the “Multiple changes in eIF2α phosphorylation at 10 μM (absorbance standardized to control = 1)” value worked out at 1.92.

The values above are taken from patent publication US20240286994A1, “NOVEL SQUARAMIDE DERIVATIVE AND USE THEREOF” (PUSAN NATIONAL UNIVERSITY INDUSTRY-UNIVERSITY COOPERATION …, priority 2021, published 2024).
